The subject of the assay is immature maize embryos (variety: A188). Kind of assay: Effect of auxin in coculture medium on regeneration and GUS gene expression in whole plants regenerated without selection from Agrobacterium-inoculated immature maize embryos. The format is cell-based. Particulars: for Number of immature embryos found to regenerate into whole plants on LSZ medium / Number of immature embryos whose leaf pieces were all GUS-negative / Number of immature embryos with at least one leaf piece showing GUS gene expression: auxin 6.8 μM in coculture medium, 24 immature embryos per auxin; for Number of immature embryos found to regenerate into whole plants on LSZ medium: Agrobacterium LBA4404 (pSB124); for Efficiency of regeneration into whole plants (in words) / Percentage of regenerated plants showing expression of the transgene (in words): comparison of auxins in coculture medium. As for the experimental part:
Maize (variety: A188) immature embryos (1.0 to 1.5 mm in size) at 7 to 14 days after pollination were aseptically collected and washed once with LS-inf liquid medium, followed by pretreatment (thermal treatment at 46° C. for 3 minutes) to increase gene transfer efficiency for transformation enhancement. In LS-inf liquid medium containing 100 μM acetosyringone, Agrobacterium strain LBA4404 (pSB124) (Komari et al., 1996) was suspended to prepare an inoculum.
The thermally-treated immature embryos were mixed with the inoculum, vortexed for 30 seconds, and then allowed to stand for 5 minutes at room temperature. The Agrobacterium-inoculated immature embryos (24 in total) were placed, with their scutella facing up, onto a coculture medium containing dicamba (3,6-dichloro-o-anisic acid) or picloram (4-amino-3,5,6-trichloropicolinic acid) at a concentration of 6.8 μM in LS-AS medium (Ishida et al. 1996; solidified with 8 g/l agarose) which had been prepared to exclude 2,4-D (2,4-dichlorophenoxyacetic acid) and contain 5 μM AgNO3 and 5 μM CuSO4.
On the other hand, LS-AS medium containing 5 μM AgNO3 and 5 μM CuSO4 was supplemented with 1.5 mg/l (6.8 μM) 2,4-D as an auxin member and also used for testing, 24 immature embryos were placed onto this medium.
The immature embryos cultured in the dark at 25° C. for 7 days were placed onto LSZ medium (Ishida et ai., 1996) containing 10 μM CuSO4, and then cultured in the light at 25° C. for about 2 weeks. Leaves of the regenerated whole plants were partially excised and immersed in 0.1 M phosphate buffer (pH 6.8) containing 0.1% Triton X-100 and then allowed to stand at 37° C. for 1 hour. The phosphate buffer was removed and replaced by another phosphate buffer containing 1.0 mM 5-bromo-4-chloro-3-indolyl-β-D-glucuronic acid (X-gluc) and 20% methanol. After treatment at 37° C. for 24 hours, GUS gene expression was analyzed.

Results on three compounds are retold here after patent US20130125265A1, “AGROBACTERIUM-MEDIATED METHOD FOR PRODUCING TRANSFORMED PLANT” (JAPAN TOBACCO INC., priority 2008, published 2013).

For `Nc1c(Cl)c(Cl)nc(C(=O)O)c1Cl` [picloram, 4-amino-3,5,6-trichloropicolinic acid], the “Efficiency of regeneration into whole plants (in words)” value is recorded as “higher efficiency” and the “Percentage of regenerated plants showing expression of the transgene (in words)” value (from here on “Percentage”) is on record as “increased percentage”. For the same compound, for the setting “no selection”, the “Number of immature embryos found to regenerate into whole plants on LSZ medium” value (shortened to “Number of immature embryos found”) is “All of the immature embryos”, the “Number of immature embryos whose leaf pieces were all GUS-negative” value came to 15 and the “Number of immature embryos with at least one leaf piece showing GUS gene expression” value was 9.

Consider `COc1c(Cl)ccc(Cl)c1C(=O)O` [dicamba, 3,6-dichloro-o-anisic acid], for which the “Efficiency of regeneration into whole plants (in words)” value is “higher efficiency” and the “Percentage” value was “increased percentage”. Under “no selection”, the “Number of immature embryos found” value came out at 24, the “Number of immature embryos whose leaf pieces were all GUS-negative” value was 13 and the “Number of immature embryos with at least one leaf piece showing GUS gene expression” value came to 11.

Turning to `O=C(O)COc1ccc(Cl)cc1Cl` [2,4-D, 2,4-dichlorophenoxyacetic acid], the “Percentage” value is “slightly lower”. In addition, under “no selection”, the “Number of immature embryos found” value was 21 and the “Number of immature embryos with at least one leaf piece showing GUS gene expression” value stood at 4. In addition, the “Number of immature embryos that did not regenerate into plants on LSZ medium” value (auxin 1.5 mg/l (6.8 μM) in coculture medium, 24 immature embryos, no selection) was found to be 3.
